Entries after “also recorded” stand apart in the source; their conditions may differ. Read-outs that look alike come from different tables or passages of the source.
Tests used:
[1] = biological target: T1, human apical sodium-dependent bile acid transporter (ASBT) (Homo sapiens, UniProt Q12908); test: Uptake of prodrug into ASBT-MDCK monolayers
T1 sequence (Q12908 1-348): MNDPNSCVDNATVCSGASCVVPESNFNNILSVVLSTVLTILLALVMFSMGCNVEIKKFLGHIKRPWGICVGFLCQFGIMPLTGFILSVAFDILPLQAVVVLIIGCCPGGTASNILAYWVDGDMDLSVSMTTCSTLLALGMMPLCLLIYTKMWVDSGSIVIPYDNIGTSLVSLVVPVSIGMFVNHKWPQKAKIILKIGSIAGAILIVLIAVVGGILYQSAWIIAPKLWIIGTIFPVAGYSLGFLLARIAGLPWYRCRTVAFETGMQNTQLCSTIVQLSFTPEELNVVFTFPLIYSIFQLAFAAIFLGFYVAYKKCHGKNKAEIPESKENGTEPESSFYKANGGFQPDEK

[2] = biological target: T1, human apical sodium-dependent bile acid transporter (ASBT); test: Inhibition of taurocholate uptake by prodrugs in ASBT-MDCK monolayers; format: cell-based; conditions: taurocholate uptake into ASBT-MDCK monolayers, 10 min
[3] = biological target: Pept1; conditions: Xenopus laevis oocytes; ref Balimane et al., 1998; cited from earlier work
[4] = ref Burnette and de, 1994; cited from earlier work
[5] = biological target: Pept1; conditions: CHO-PepT1; ref Han et al., 1998; cited from earlier work
[6] = of the drug moiety; source not stated; cited from earlier work
[7] = ref Porter and Kaplan, 2009; cited from earlier work
[8] = prodrug uptake into ASBT-MDCK, 1–500 μM, 10 min, 37°C, mean (±SEM) of three measurements

CDCA-lysine-ketoprofen
transport capacity relative to the capacity for taurocholate ([1]; from normJmax): 1.87 fold | Kt [1, 8]: 50.8 (±23.2) μM

C[C@H](CCC(=O)NCCS(=O)(=O)O)[C@H]1CC[C@H]2[C@@H]3[C@H](O)C[C@@H]4C[C@H](O)CC[C@]4(C)[C@H]3C[C@H](O)[C@]12C [taurocholate, Taurocholic acid]
Kt ([1]; taurocholate, obtained from a pooled data analysis approach): 5.03 µM

CC(C(=O)O)c1cccc(C(=O)c2ccccc2)c1 (stereo not drawn) [ketoprofen, Ketoprofen]
ASBT inhibition (result in words) [2]: Neither ketoprofen nor niacin was ASBT inhibitor; also recorded: not reduced

CC(C)[C@H](N)C(=O)OCCOCn1cnc2c(=O)[nH]c(N)nc21 [valacyclovir]
Ki [3]: 4080 µM | increase of acyclovir bioavailability [4]: 3 fold | Ki [5]: 1100 µM

CDCA-lysine-niacin
ASBT's capacity to transport, relative to that of taurocholate ([1]; from normJmax): about 9% | Kt [1, 8]: 8.22 (±3.63) μM

O=C(O)c1cccnc1 [niacin, nicotinic acid]
ASBT inhibition (result in words) [2]: Neither ketoprofen nor niacin was ASBT inhibitor; also recorded: not reduced | Log P [6]: 0.25 | half-life [7]: 20 to 45 min

Source: PMC2912288 (International journal of pharmaceutics, 2010)
